Measurements reported in ChEMBL document CHEMBL3885881, “DrugMatrix”.

Organism: Rattus norvegicus
Assay: DrugMatrix - Regimen: Daily Repeat
Type: toxicity, organism-based, Sprague-Dawley
Design: regimen Daily Repeat, gender Male, age 6-8 weeks
Conditions: in vivo, po, route oral GAVAGE, vehicle .5 % CMC; for BASOPHIL / EOSINOPHIL / ERYTHROCYTE COUNT / HEMATOCRIT / HEMOGLOBIN / LEUKOCYTE COUNT / LYMPHOCYTE / MEAN CORPUSCULAR HEMOGLOBIN / MEAN CORPUSCULAR HEMOGLOBIN CONCENTRATION / MONOCYTE / NEUTROPHIL / PLATELET COUNT: tissue Blood; for ALANINE AMINOTRANSFERASE / ALBUMIN / ALKALINE PHOSPHATASE / ASPARTATE AMINOTRANSFERASE / BLOOD UREA NITROGEN / CHLORIDE / CHOLESTEROL / CREATINE PHOSPHOKINASE / CREATININE / GLUCOSE / PHOSPHORUS / POTASSIUM / SODIUM / TOTAL BILIRUBIN / TOTAL PROTEIN: tissue Plasma
[1] = 0 mg/kg, 72 h, dose level Control, time 3 day
[2] = 0 mg/kg, 120 h, dose level Control, time 5 day
[3] = 60 mg/kg, 72 h, dose level Low, time 3 day
[4] = 60 mg/kg, 120 h, dose level Low, time 5 day

In the case of `CC(C)Cc1ccc([C@H](C)C(=O)O)cc1` [DEXIBUPROFEN], the BASOPHIL [1] is reported as 1.52%, the EOSINOPHIL [1] is reported as 0.98% and the “ERYTHROCYTE COUNT” value [1] is reported as 6.96 x10E6/uL. For the same compound, the HEMATOCRIT [1] was 44.65%, the HEMOGLOBIN [1] was 13.62 G/DL and the “LEUKOCYTE COUNT” value [1] was 9.83 x10E3/uL. For the same compound, the LYMPHOCYTE [1] was 76.48%, the “MEAN CORPUSCULAR HEMOGLOBIN” value [1] was 19.57 pg and the “MEAN CORPUSCULAR HEMOGLOBIN CONCENTRATION” value [1] was 30.47 G/DL. For the same compound, the MONOCYTE [1] was 2.13%, the NEUTROPHIL [1] was 18.6% and the “PLATELET COUNT” value [1] was 1217.17 x10E3/uL. For the same compound, the “ALANINE AMINOTRANSFERASE” value [1] was 41 u/L, the ALBUMIN [1] was 3.77 G/DL and the “ALKALINE PHOSPHATASE” value [1] was 411.83 u/L. For the same compound, the “ASPARTATE AMINOTRANSFERASE” value [1] was 62.83 u/L, the “BLOOD UREA NITROGEN” value [1] was 15.17 mg/dL and the CHLORIDE [1] was 104.33 MEQ/L. The CHOLESTEROL [1] was 71.17 mg/dL, the “CREATINE PHOSPHOKINASE” value [1] was 123.5 u/L and the CREATININE [1] was 0.55 mg/dL. For the same compound, the GLUCOSE [1] was 182.67 mg/dL, the PHOSPHORUS [1] was 11.23 mg/dL and the POTASSIUM [1] was 7.03 MEQ/L. The SODIUM [1] was 148 MEQ/L, the “TOTAL BILIRUBIN” value [1] was 0.57 mg/dL and the “TOTAL PROTEIN” value [1] was 6.85 G/DL. For the same compound, the BASOPHIL [2] was 1.35%, the EOSINOPHIL [2] was 0.43% and the “ERYTHROCYTE COUNT” value [2] was 6.96 x10E6/uL. The HEMATOCRIT [2] was 44.35%, the HEMOGLOBIN [2] was 13.98 G/DL and the “LEUKOCYTE COUNT” value [2] was 9.45 x10E3/uL. For the same compound, the LYMPHOCYTE [2] was 80.83%, the “MEAN CORPUSCULAR HEMOGLOBIN” value [2] was 20.1 pg and the “MEAN CORPUSCULAR HEMOGLOBIN CONCENTRATION” value [2] was 31.52 G/DL. For the same compound, the MONOCYTE [2] was 2.37%, the NEUTROPHIL [2] was 14.05% and the “PLATELET COUNT” value [2] was 1298 x10E3/uL. For the same compound, the “ALANINE AMINOTRANSFERASE” value [2] was 42.17 u/L, the ALBUMIN [2] was 3.77 G/DL and the “ALKALINE PHOSPHATASE” value [2] was 419 u/L. The “ASPARTATE AMINOTRANSFERASE” value [2] was 66.67 u/L, the “BLOOD UREA NITROGEN” value [2] was 16.67 mg/dL and the CHLORIDE [2] was 103.17 MEQ/L. For the same compound, the CHOLESTEROL [2] was 66.33 mg/dL, the “CREATINE PHOSPHOKINASE” value [2] was 148.33 u/L and the CREATININE [2] was 0.58 mg/dL. For the same compound, the GLUCOSE [2] was 196.83 mg/dL, the PHOSPHORUS [2] was 11.8 mg/dL and the POTASSIUM [2] was 6.47 MEQ/L. The SODIUM [2] was 148.33 MEQ/L, the “TOTAL BILIRUBIN” value [2] was 0.53 mg/dL and the “TOTAL PROTEIN” value [2] was 6.77 G/DL. The BASOPHIL [3] was 1.63%, the EOSINOPHIL [3] was 0.33% and the “ERYTHROCYTE COUNT” value [3] was 7.19 x10E6/uL. For the same compound, the HEMATOCRIT [3] was 45.6%, the HEMOGLOBIN [3] was 14.37 G/DL and the “LEUKOCYTE COUNT” value [3] was 11 x10E3/uL. For the same compound, the LYMPHOCYTE [3] was 73.1%, the “MEAN CORPUSCULAR HEMOGLOBIN” value [3] was 19.97 pg and the “MEAN CORPUSCULAR HEMOGLOBIN CONCENTRATION” value [3] was 31.47 G/DL. The MONOCYTE [3] was 2.23%, the NEUTROPHIL [3] was 22.3% and the “PLATELET COUNT” value [3] was 1212.33 x10E3/uL. For the same compound, the “ALANINE AMINOTRANSFERASE” value [3] was 40.33 u/L, the ALBUMIN [3] was 3.57 G/DL and the “ALKALINE PHOSPHATASE” value [3] was 328 u/L. For the same compound, the “BLOOD UREA NITROGEN” value [3] was 13.33 mg/dL, the CHLORIDE [3] was 104 MEQ/L and the CHOLESTEROL [3] was 71 mg/dL. The “CREATINE PHOSPHOKINASE” value [3] was 116 u/L, the CREATININE [3] was 0.6 mg/dL and the GLUCOSE [3] was 170.33 mg/dL. The PHOSPHORUS [3] was 11.63 mg/dL, the POTASSIUM [3] was 6.3 MEQ/L and the SODIUM [3] was 150 MEQ/L. For the same compound, the “TOTAL BILIRUBIN” value [3] was 0.37 mg/dL, the BASOPHIL [4] was 1.23% and the EOSINOPHIL [4] was 0.3%. For the same compound, the “ERYTHROCYTE COUNT” value [4] was 6.82 x10E6/uL, the HEMATOCRIT [4] was 42.17% and the HEMOGLOBIN [4] was 13.37 G/DL. The “LEUKOCYTE COUNT” value [4] was 13 x10E3/uL, the LYMPHOCYTE [4] was 76.73% and the “MEAN CORPUSCULAR HEMOGLOBIN” value [4] was 19.6 pg. For the same compound, the “MEAN CORPUSCULAR HEMOGLOBIN CONCENTRATION” value [4] was 31.67 G/DL, the MONOCYTE [4] was 2.2% and the NEUTROPHIL [4] was 18.83%. The “PLATELET COUNT” value [4] was 1398.33 x10E3/uL, the “ALANINE AMINOTRANSFERASE” value [4] was 34 u/L and the ALBUMIN [4] was 3.5 G/DL. The “ALKALINE PHOSPHATASE” value [4] was 320.33 u/L, the “ASPARTATE AMINOTRANSFERASE” value [4] was 59.67 u/L and the “BLOOD UREA NITROGEN” value [4] was 15.67 mg/dL. The CHLORIDE [4] was 104.67 MEQ/L, the CHOLESTEROL [4] was 70.33 mg/dL and the “CREATINE PHOSPHOKINASE” value [4] was 96 u/L. It also gave a CREATININE [4] of 0.53 mg/dL, a GLUCOSE [4] of 186.33 mg/dL and a PHOSPHORUS [4] of 12.03 mg/dL. The POTASSIUM [4] was 6.2 MEQ/L, the SODIUM [4] was 149.33 MEQ/L and the “TOTAL BILIRUBIN” value [4] was 0.3 mg/dL. For the same compound, the “TOTAL PROTEIN” value [4] was 6.27 G/DL.
